From patent US12435083B2, “Cyclopropyl-(hetero)aryl-substituted ethylsulphonyl-pyridine derivatives” (BOEHRINGER INGELHEIM VETMEDICA GMBH, priority 2021, dated 2025)
pEC50: −log10 of the molar value.

What was measured:
[1] = tested on: adult Rhipicephalus sanguineus ticks; assay: Contact activity against adult Rhipicephalus sanguineus (coated vial, mortality at 48 h); settings: contact assay; >100 μM = not active at the top concentration; read-out: R. sanguineus contact activity EC50
In short: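 Compound in acetone/0.02% Triton X-100 coated onto glass vial walls and cap filter paper; after drying, ten adult ticks added per vial. Held at 24° C, 95% relative humidity, 12 h light/dark cycle. Mortality scored visually at 48 hours; EC50 derived from a dose-response series.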

[2] = tested on: adult Ctenocephalides felis fleas; assay: Ingestion activity (flea membrane feeding, blood feeding) against adult Ctenocephalides felis; settings: flea membrane feeding (ingestion, blood feeding) assay, EC80
[3] = tested on: nymphs of Dermacentor variabilis ticks; assay: Oral rat-tick efficacy against nymphs of Dermacentor variabilis ticks; type: in vivo; settings: rats, oral gavage 10 mg/kg on Day 0, tick count on Day 3
Procedure: Example 10: Comparison of Oral Rat-Tick Efficacy Data for Selected Specific Compounds of Formula (I) Against Nymphs of Dermacentor variabilis Ticks
On Day −1, rats were sedated, fitted with an Elizabethan collar, and infested with approximately 35 nymphal stage D. variabilis ticks. On Day 0, each rat was treated via oral gavage with the appropriate formulation of placebo, positive control, or test compound at the appropriate dose. On Day 3, all rats were euthanized, and ticks were removed, counted, and disposed of. In Table 2 efficacy is expressed in % mortality compared to negative controls containing compound vehicle only.

Compound | pEC50 [1] | EC80 ([2]; read-out: C. felis membrane feeding (ingestion/blood feeding) activity EC80) [µM] | Observed efficacy (% mortality compared to negative controls) [3] [%] | C. felis membrane feeding (ingestion/blood feeding) activity EC80 [2] [µM]
CCS(=O)(=O)c1cc(-c2ccc(C3(F)CC3)cc2)cnc1-c1nc2cc(C(F)(F)C(F)(F)F)nnc2n1C [compound 19] | 4.00 to 5.00 | <1 | >95 | –
CCS(=O)(=O)c1cc(-c2ccc(C3CC3)cc2)cnc1-c1nc2cc(C(F)(F)C(F)(F)F)cnc2n1C [compound 44] | 4.00 to 5.00 | – | >95 | 1 to 10
